In PubChem BioAssay AID1963979 (Molecular Pharmacology Branch, DTP, NCI, 2024):
pIC50: −log10 of the molar value.

Tested on: 361931-004-R-J1-PDC multicell spheroid viability
Experiment: Anticancer human tumor 361931-004-R-J1-PDC patient-derived colon adenocarcinoma cell line growth inhibition [PI3K]
Conditions: for pIC50: curve of first compound; for viability, T/C: stronger effect = lower value
Source text: Combinatorial screen of targeted agents with the PI3K inhibitors inavolisib, alpelisib, duvelisib, and copanlisib in multi-cell type tumor spheroids
A high-throughput screen of multi-cell type tumor spheroids was designed to identify active combinations of targeted small molecules and PI3K pathway inhibitors. Complex spheroids include a stromal component modeled by human endothelial cells (HUVEC) and fibroblasts modeled by human mesenchymal stem cells (MSCs). The concentration ranges selected for each drug and investigational agent were based upon clinically achievable concentrations if the clinical Cmax of the agent was known.
Compounds. The drugs and investigational agents: inavolisib (NSC800729), alpelisib (NSC765974), duvelisib (NSC772469), copanlisib (NSC816437), ipatasertib (NSC767898), afuresertib (NSC778305), talazoparib (NSC767125), sapanisertib (NSC764658), selumetinib (NSC741078), tovorafenib (DAY101, NSC766906), vemurafenib (NSC761431), ravoxertinib (NSC781343), sotorasib (NSC818433), MRTX1133 (NSC 836407), abemaciclib (NSC 768073), palbociclib (NSC758247), venetoclax (NSC 766270), SY5609 (NSC837396), enzalutamide (NSC755605), and darolutamide (NSC825331), were obtained from the National Cancer Institute (NCI) Developmental Therapeutics Program Chemical Repository. The FDA-approved anticancer drug set is available from the NCI Developmental Therapeutics Program. […] The stock solutions were prepared in dimethyl sulfoxide (DMSO, Sigma-Aldrich, St. Louis, MO, cat. D2650) at 800-fold the tested concentration and stored at -70 degrees C prior to their use. All drugs and investigational agents were tested over a range starting from a high concentration at or near the clinical Cmax and decreasing in half-log increments. If the clinical Cmax for an agent had not been determined, the highest concentration tested was 10 microM.
Cell Culture. All cells were maintained in an incubator at 37 degrees C and 5% CO2 with 95% humidity. The PDC lines were cultured according to standard operating procedures established by the NCI PDMR (https://pdmr.cancer.gov/sops/default.htm). All PDCs were thawed and cultured in Matrigel-coated flasks prepared with a working solution of 1X Ham's F-12 nutrient mix, without supplementation (Invitrogen, Waltham, MA, cat. 11765054), 100 U/mL penicillin-streptomycin (Invitrogen, cat. 15140122), and 2.5% Matrigel (Corning Inc., Corning, NY, cat. 354248) for the first three passages. The 354836-022-R-J1-PDC, 475296-252-R-J1-PDC, and 997726-040-R-J2-PDC lines were cultured in 6A media, which includes advanced DMEM/F-12 (Thermo Fisher Scientific, cat. 12634028), 10 mM HEPES (Thermo Fisher Scientific, cat. 15630080), 1X GlutaMAX supplement (Thermo Fisher Scientific, cat. 35050061), 0.1 mg/mL primocin (InvivoGen, San Diego, CA, cat. ant-pm-2), 10% defined fetal bovine serum, heat inactivated (HyClone Laboratories Inc., Logan, UT, cat. SH30070.03HI), 50% L-WRN conditioned media (ATCC, cat. CRL-3276), 1.25 mM N-Acetyl-L-cysteine (Sigma-Aldrich, cat. A9165), 10 mM nicotinamide (Sigma-Aldrich, cat. N0636), 1X B-27 supplement (Thermo Fisher Scientific, cat. 17504044), 1X N-2 supplement (Thermo Fisher Scientific, cat. 17502048), and 10 microM Y-27632 dihydrochloride (Tocris Bioscience, Bristol, United Kingdom, cat. 1254). The 624824-186-R-J2-PDC line was cultured in 6C/Colon 1B media, which includes all 6A media components plus 50 ng/mL human EGF recombinant protein (Thermo Fisher Scientific, cat. PHG0311). […]

[1] = second compound 0.00316 µM, first compound 0.000316 µM
[2] = second compound 0.00316 µM, first compound 0.001 µM
[3] = second compound 0.00316 µM, first compound 0.00316 µM
[4] = second compound 0.00316 µM, first compound 0.01 µM
[5] = second compound 0.00316 µM, first compound 0.0316 µM
[6] = second compound 0.00316 µM, first compound 0.1 µM
[7] = second compound 0.01 µM, first compound 0.000316 µM
[8] = second compound 0.01 µM, first compound 0.001 µM
[9] = second compound 0.01 µM, first compound 0.00316 µM
[10] = second compound 0.01 µM, first compound 0.01 µM
[11] = second compound 0.01 µM, first compound 0.0316 µM
[12] = second compound 0.01 µM, first compound 0.1 µM
[13] = second compound 0.0316 µM, first compound 0.000316 µM
[14] = second compound 0.0316 µM, first compound 0.001 µM
[15] = second compound 0.0316 µM, first compound 0.00316 µM
[16] = second compound 0.0316 µM, first compound 0.01 µM
[17] = second compound 0.0316 µM, first compound 0.0316 µM
[18] = second compound 0.0316 µM, first compound 0.1 µM
[19] = second compound 0.1 µM, first compound 0.000316 µM
[20] = second compound 0.1 µM, first compound 0.001 µM
[21] = second compound 0.1 µM, first compound 0.00316 µM
[22] = second compound 0.1 µM, first compound 0.01 µM
[23] = second compound 0.1 µM, first compound 0.0316 µM
[24] = second compound 0.1 µM, first compound 0.1 µM
[25] = second compound 0.316 µM, first compound 0.000316 µM
[26] = second compound 0.316 µM, first compound 0.001 µM
[27] = second compound 0.316 µM, first compound 0.00316 µM
[28] = second compound 0.316 µM, first compound 0.01 µM
[29] = second compound 0.316 µM, first compound 0.0316 µM
[30] = second compound 0.316 µM, first compound 0.1 µM
[31] = second compound 1 µM, first compound 0.000316 µM
[32] = second compound 1 µM, first compound 0.001 µM
[33] = second compound 1 µM, first compound 0.00316 µM
[34] = second compound 1 µM, first compound 0.01 µM
[35] = second compound 1 µM, first compound 0.0316 µM
[36] = second compound 1 µM, first compound 0.1 µM
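Further: spheroids exposed to agents for seven days before readout.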

In the case of CC(=O)c1c(C)c2cnc(Nc3ccc(N4CCNCC4)cn3)nc2n(C2CCCC2)c1=O + CC(Nc1ccc2c(c1)OCCn1cc(N3C(=O)OCC3C(F)F)nc1-2)C(N)=O, the pIC50 (second compound 0.00316 µM) was < 7.00, the pIC50 (second compound 0.01 µM) was < 7.00 and the pIC50 (second compound 0.0316 µM) was < 7.00. For the same compound, the pIC50 (second compound 0.1 µM) was < 7.00, the pIC50 (second compound 0.316 µM) was < 7.00 and the pIC50 (second compound 1 µM) was 7.04. For the same compound, the viability, T/C [1] was 97.9%, the viability, T/C [2] was 106% and the viability, T/C [3] was 105%. It also gave a viability, T/C [4] of 107%, a viability, T/C [5] of 99.4% and a viability, T/C [6] of 73.7%. It also gave a viability, T/C [7] of 111%, a viability, T/C [8] of 104% and a viability, T/C [9] of 104%. For the same compound, the viability, T/C [10] was 99.8%, the viability, T/C [11] was 99.1% and the viability, T/C [12] was 76.8%. It also gave a viability, T/C [13] of 102%, a viability, T/C [14] of 102% and a viability, T/C [15] of 93.8%. It also gave a viability, T/C [16] of 86.8%, a viability, T/C [17] of 91% and a viability, T/C [18] of 82.6%. The viability, T/C [19] was 98.8%, the viability, T/C [20] was 87.2% and the viability, T/C [21] was 86.1%. It also gave a viability, T/C [22] of 89%, a viability, T/C [23] of 90.4% and a viability, T/C [24] of 63.8%. It also gave a viability, T/C [25] of 96.5%, a viability, T/C [26] of 87.1% and a viability, T/C [27] of 90.8%. For the same compound, the viability, T/C [28] was 77.6%, the viability, T/C [29] was 81.4% and the viability, T/C [30] was 61.9%. It also gave a viability, T/C [31] of 86.6%, a viability, T/C [32] of 78.5% and a viability, T/C [33] of 75%. For the same compound, the viability, T/C [34] was 85.1%, the viability, T/C [35] was 64.3% and the viability, T/C [36] was 48.9%.

CC(C)n1nc(-c2ccc3oc(N)nc3c2)c2c(N)ncnc21 + CC(Nc1ccc2c(c1)OCCn1cc(N3C(=O)OCC3C(F)F)nc1-2)C(N)=O was tested, and the pIC50 (second compound 0.00316 µM) was < 7.00, the pIC50 (second compound 0.01 µM) was < 7.00 and the pIC50 (second compound 0.0316 µM) was < 7.00. The pIC50 (second compound 0.1 µM) was 7.02, the pIC50 (second compound 0.316 µM) was < 7.00 and the pIC50 (second compound 1 µM) was 7.26. It also gave a viability, T/C [1] of 102%, a viability, T/C [2] of 106% and a viability, T/C [3] of 98.2%. It also gave a viability, T/C [4] of 95.6%, a viability, T/C [5] of 101% and a viability, T/C [6] of 59.9%. It also gave a viability, T/C [7] of 109%, a viability, T/C [8] of 104% and a viability, T/C [9] of 97.5%. The viability, T/C [10] was 91.6%, the viability, T/C [11] was 95.8% and the viability, T/C [12] was 57.3%. The viability, T/C [13] was 102%, the viability, T/C [14] was 98.7% and the viability, T/C [15] was 91.9%. For the same compound, the viability, T/C [16] was 91.2%, the viability, T/C [17] was 94.1% and the viability, T/C [18] was 50.2%. The viability, T/C [19] was 102%, the viability, T/C [20] was 116% and the viability, T/C [21] was 100%. It also gave a viability, T/C [22] of 91.2%, a viability, T/C [23] of 87.2% and a viability, T/C [24] of 47.6%. For the same compound, the viability, T/C [25] was 84.9%, the viability, T/C [26] was 96.3% and the viability, T/C [27] was 106%. The viability, T/C [28] was 81.7%, the viability, T/C [29] was 75.6% and the viability, T/C [30] was 51.9%. It also gave a viability, T/C [31] of 89%, a viability, T/C [32] of 80.6% and a viability, T/C [33] of 82.4%. For the same compound, the viability, T/C [34] was 68.8%, the viability, T/C [35] was 69.9% and the viability, T/C [36] was 32.6%.

With CCCS(=O)(=O)Nc1ccc(F)c(C(=O)c2c[nH]c3ncc(-c4ccc(Cl)cc4)cc23)c1F + CC(Nc1ccc2c(c1)OCCn1cc(N3C(=O)OCC3C(F)F)nc1-2)C(N)=O the pIC50 (second compound 0.00316 µM) was 5.29, the pIC50 (second compound 0.01 µM) was 5.29 and the pIC50 (second compound 0.0316 µM) was 5.28. For the same compound, the pIC50 (second compound 0.1 µM) was 5.36, the pIC50 (second compound 0.316 µM) was 5.39 and the pIC50 (second compound 1 µM) was 5.76. The viability, T/C [5] was 102%, the viability, T/C [6] was 100% and the viability, T/C (second compound 0.00316 µM, first compound 0.316 µM) was 84.9%. For the same compound, the viability, T/C (second compound 0.00316 µM, first compound 1 µM) was 82.8%, the viability, T/C (second compound 0.00316 µM, first compound 3.16 µM) was 83.8% and the viability, T/C (second compound 0.00316 µM, first compound 10 µM) was 4.25%. The viability, T/C [11] was 101%, the viability, T/C [12] was 94.7% and the viability, T/C (second compound 0.01 µM, first compound 0.316 µM) was 81.8%. For the same compound, the viability, T/C (second compound 0.01 µM, first compound 1 µM) was 83.6%, the viability, T/C (second compound 0.01 µM, first compound 3.16 µM) was 83.4% and the viability, T/C (second compound 0.01 µM, first compound 10 µM) was 4.05%. For the same compound, the viability, T/C [17] was 92.3%, the viability, T/C [18] was 86% and the viability, T/C (second compound 0.0316 µM, first compound 0.316 µM) was 85.5%. It also gave a viability, T/C (second compound 0.0316 µM, first compound 1 µM) of 83%, a viability, T/C (second compound 0.0316 µM, first compound 3.16 µM) of 87.2% and a viability, T/C (second compound 0.0316 µM, first compound 10 µM) of 3.87%. It also gave a viability, T/C [23] of 88.5%, a viability, T/C [24] of 81.5% and a viability, T/C (second compound 0.1 µM, first compound 0.316 µM) of 89.1%. It also gave a viability, T/C (second compound 0.1 µM, first compound 1 µM) of 73%, a viability, T/C (second compound 0.1 µM, first compound 3.16 µM) of 70.2% and a viability, T/C (second compound 0.1 µM, first compound 10 µM) of 4.14%. It also gave a viability, T/C [29] of 86.7%, a viability, T/C [30] of 72.6% and a viability, T/C (second compound 0.316 µM, first compound 0.316 µM) of 63%. The viability, T/C (second compound 0.316 µM, first compound 1 µM) was 73.5%, the viability, T/C (second compound 0.316 µM, first compound 3.16 µM) was 62.5% and the viability, T/C (second compound 0.316 µM, first compound 10 µM) was 3.6%. The viability, T/C [35] was 74.4%, the viability, T/C [36] was 65.7% and the viability, T/C (second compound 1 µM, first compound 0.316 µM) was 70%. It also gave a viability, T/C (second compound 1 µM, first compound 1 µM) of 50.3%, a viability, T/C (second compound 1 µM, first compound 3.16 µM) of 46.6% and a viability, T/C (second compound 1 µM, first compound 10 µM) of 2.59%.
